The record followed here is patent EP4722195A1, “PH-SENSITIVE CATIONIC LIPID AND LIPID NANOPARTICLES” (National University Corporation Hokkaido University, priority 2023, dated 2024).

Each structure is given as a SMILES string.

For one assay, the system named is spleen. The experiment in a line: Fluc activity in the spleen of mice administered Fluc mRNA-loaded lipid nanoparticles. The assay is classed as in vivo, BALB/c mice. As to conditions: Example 22, Fig. 1; TxT/DSPC/chol/PEG-DMG=50/15/35/1.5 (mol%); 0.1 mg mRNA/kg intravenous; six hours after administration; comparison among TxT lipids. On the procedure: Lipid nanoparticles were administered to mice by intravenous injection into the tail vein using a 27G needle. Unless otherwise specified, BALB/c mice (4 to 5 weeks old, female) were used.
First, BALB/c mice (female, 4 weeks old) were intravenously injected with lipid nanoparticles encapsulating Fluc mRNA (Fluc mRNA-loaded lipid nanoparticles) at a dose of 0.1 mg mRNA/kg. Six hours after intravenous injection, the mice were euthanized, each tissue was collected, frozen in liquid nitrogen, and stored at -80°C. The tissues were homogenized in passive lysis buffer (manufactured by Promega) using a bead-type cell disruptor (Micro Smash MS-100R, manufactured by TOMY Seiko). Tissue debris was removed by centrifugation, and the supernatant was collected. Fluc activity in the supernatant was measured using the Luciferase Assay System (E1500, manufactured by Promega) according to the manufacturer's protocol. Luminescence was measured using a luminometer (Luminescencer-PSN, manufactured by ATTO). Protein concentration was determined using a commercially available assay kit (BCA Protein Assay Kit, manufactured by Pierce). Fluc activity was expressed as relative light units (RLU) per mg of protein. […]

Assay [1] deals with proprotein convertase subtilisin/kexin type 9 (PCSK9). The experiment in a line: PCSK9-targeted genome editing in mice, serum PCSK9 (ELISA). The assay is classed as in vivo, Balb/c mice. As to conditions: Example 34, Fig. 13. On the procedure:
Specifically, an RNA solution was first prepared to contain Cas9-mRNA (TriLink, 5moU-modified) and gRNA targeting proprotein convertase subtilisin/kexin type 9 (PCSK9) (SEQ ID NO: 3) at a mass ratio of 1:2 (N/P = 6.0). Using this RNA solution, in the same manner as Example 32, lipid nanoparticles encapsulating Cas9-mRNA and PCSK9-gRNA and having a composition of TxT-5-SA14/DSPC/chol/PEG-DMG = 50/3/47/1.5 (mol%) were prepared (lipid nanoparticles for PCSK9-targeted genome editing). […]
Subsequently, the prepared lipid nanoparticles for PCSK9-targeted genome editing were administered via tail vein injection to female Balb/c mice (4 weeks old) at doses of 0.3, 1.0, and 2.0 mg RNA/kg. […] The collected blood was allowed to stand at room temperature for 1 hour, followed by centrifugation at 4°C, 1,000 × g for 10 minutes. The supernatant was collected to obtain serum. The concentration of PCSK9 in the serum was measured using a commercially available ELISA kit (Mouse/Rat PCSK9 ELISA Kit, CircuLex). Calibration samples were prepared by serial dilution from 6 ng/mL to obtain solutions of 3, 1.5, 0.75, 0.375, 0.188, and 0.094 ng/mL, each in 300 µL volumes. Serum samples were diluted 100-fold. […] Finally, 100 µL of Stop Solution (CircuLex) was added, and absorbance at 450 nm and 540 nm was measured using a spectrophotometer (Varioskan Lux, Thermo Fisher Scientific).

On to `CCCCCCC(CCCC)CNC(=O)CCCC(=O)OCC(COC(=O)CCCC(=O)NCC(CCCC)CCCCCC)(COC(=O)CCCC(=O)NCC(CCCC)CCCCCC)NC(=O)CCN1CCCCC1` (stereo not drawn) [TxT-5-5A12β, 2-(((5-((2-butyloctyl)amino)-5-oxopentanoyl)oxy)methyl)-2-(3-(piperidin-1-yl)propanamido)propane-1,3-diyl bis(5-((2-butyloctyl)amino)-5-oxopentanoate)], for which the “Fluc activity in the spleen” value in the assay on spleen is reported as “highest Fluc activity in the spleen”.

With `CCCCCCCN(CCCCCCC)C(=O)CCCC(=O)OCC(COC(=O)CCCC(=O)N(CCCCCCC)CCCCCCC)(COC(=O)CCCC(=O)N(CCCCCCC)CCCCCCC)NC(=O)CCN1CCCCC1` [TxT-5-5A14, 2-(((5-(diheptylamino)-5-oxopentanoyl)oxy)methyl)-2-(3-(piperidin-1-yl)propanamido)propane-1,3-diyl bis(5-(diheptylamino)-5-oxopentanoate)], in assay [1] (0.3, 1.0, and 2.0 mg RNA/kg), the “PCSK9 knockout efficiency versus dose” value is given as “dose-dependent increase in PCSK9 knockout efficiency”. Further, the PCSK9 knockout activity entry in assay [1] (dose of 2.0 mg RNA/kg tail vein, serum PCSK9 ten days after administration, N = 3 to 6) is given as “no less than 90%”.
